Laboratory results reported in PubChem BioAssay AID330 (DTP/NCI, 2004).
Values joined by “and” are separate entries in the source; they are usually repeats but may differ in a detail not shown here. Equal entries are not always repeated. Inconclusive results and toxic doses are left out. The calls were made as follows: active = survival T/C of 150% or more; inactive = T/C below 125% in these data.

Test system: P388 leukemia ip, CD2F1 mice, survival T/C
Experiment: NCI In Vivo Anticancer Drug Screen. Data for tumor model P388 Leukemia (intraperitoneal) in CD2F1 (CDF1) mice
Conditions: endpoint: median survival time, higher = longer survival
In short: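 Mice carrying the transplanted tumor received test compound or vehicle. Survival was recorded in each group, and the value is the treated-group measurement divided by that of the vehicle-treated control group.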

[1] = dose: 60.0 mg/kg/injection, schedule: Q01DX005 (ip), vehicle: saline with Tween-80
[2] = dose: 60.0 mg/kg/injection, schedule: Q01DX005 (ip), vehicle: Klucel (hydroxypropylcellulose) (HPC)
[3] = dose: 120.0 mg/kg/injection, schedule: Q01DX005 (ip), vehicle: Klucel (hydroxypropylcellulose) (HPC)
[4] = dose: 240.0 mg/kg/injection, schedule: Q01DX005 (ip), vehicle: Klucel (hydroxypropylcellulose) (HPC)
[5] = dose: 100.0 mg/kg/injection, schedule: Q04DX002 (ip), vehicle: saline with Tween-80
[6] = dose: 200.0 mg/kg/injection, schedule: Q04DX002 (ip), vehicle: saline with Tween-80
[7] = dose: 50.0 mg/kg/injection, schedule: Q01DX005 (ip), vehicle: saline
[8] = dose: 100.0 mg/kg/injection, schedule: Q01DX005 (ip), vehicle: saline
[9] = dose: 200.0 mg/kg/injection, schedule: Q01DX005 (ip), vehicle: saline
[10] = dose: 120.0 mg/kg/injection, schedule: Q01DX005 (ip), vehicle: saline with Tween-80
[11] = dose: 240.0 mg/kg/injection, schedule: Q01DX005 (ip), vehicle: saline with Tween-80
[12] = dose: 50.0 mg/kg/injection, schedule: Q01DX005 (ip), vehicle: saline with Tween-80
[13] = dose: 100.0 mg/kg/injection, schedule: Q01DX005 (ip), vehicle: saline with Tween-80
[14] = dose: 200.0 mg/kg/injection, schedule: Q01DX005 (ip), vehicle: saline with Tween-80
[15] = dose: 50.0 mg/kg/injection, schedule: Q01DX009 (ip), vehicle: Klucel (hydroxypropylcellulose) (HPC)
[16] = dose: 100.0 mg/kg/injection, schedule: Q01DX009 (ip), vehicle: Klucel (hydroxypropylcellulose) (HPC)
[17] = dose: 200.0 mg/kg/injection, schedule: Q01DX009 (ip), vehicle: Klucel (hydroxypropylcellulose) (HPC)

Measured: T/C

N#Cc1c2c(c(N3CCCCC3)n3c1nc1ccccc13)CCC2
inactive: dose: 15.0 mg/kg/injection, schedule: Q01DX005 (ip), vehicle: saline with Tween-80 98 % of control | dose: 30.0 mg/kg/injection, schedule: Q01DX005 (ip), vehicle: saline with Tween-80 102 % of control | [1] 91 % of control and 95 % of control

COC(=O)/C=C(\C)NC1CC(OC2C[C@](O)(C(C)=O)Cc3c(O)c4c(c(O)c32)C(=O)c2c(OC)cccc2C4=O)OC(C)C1O (stereo partly drawn)
inactive: dose: 6.25 mg/kg/injection, schedule: Q04DX003 (ip), vehicle: saline with Tween-80 105 % of control | dose: 12.5 mg/kg/injection, schedule: Q04DX003 (ip), vehicle: saline with Tween-80 110 % of control and 113 % of control | dose: 50.0 mg/kg/injection, schedule: Q04DX003 (ip), vehicle: saline with Tween-80 96 % of control

O=C(NCCO)c1ccc(O)cc1O
inactive: [2] 116 % of control | [3] 120 % of control | [4] 120 % of control

CC(=O)Nc1nccs1.CC(=O)Nc1nccs1.[Cl][Pt][Cl]
inactive: [5] 93 % of control | [6] 91 % of control

CNC(=O)OC(C)C1CCCCC1OC(=O)NC (stereo not drawn)
inactive: [7] 100 % of control | [8] 106 % of control | [9] 100 % of control

Cc1cc2c(c3c1C(C)CCC3=O)C(C)(C)CC2(C)C (stereo not drawn)
inactive: dose: 50.0 mg/kg/injection, schedule: Q01DX005 (ip), vehicle: saline + Tween-80 + alcohol 101 % of control | dose: 100.0 mg/kg/injection, schedule: Q01DX005 (ip), vehicle: saline + Tween-80 + alcohol 108 % of control | dose: 200.0 mg/kg/injection, schedule: Q01DX005 (ip), vehicle: saline + Tween-80 + alcohol 104 % of control

CC1C(=O)OC2C1CCC1(C)C=C(Cl)C(=O)C3(C)OC213 (stereo not drawn)
inactive: dose: 50.0 mg/kg/injection, schedule: Q04DX002 (ip), vehicle: saline with Tween-80 100 % of control | [5] 100 % of control | [6] 100 % of control

C=C1C(=O)OC2C(OC(C)=O)C1C(OC(=O)C(C)CC)[C@]1(C)C(=O)C=C[C@H]1[C@@H]2C (stereo partly drawn)
inactive: dose: 0.78 mg/kg/injection, schedule: Q01DX005 (ip), vehicle: Klucel (hydroxypropylcellulose) (HPC) 97 % of control | dose: 1.56 mg/kg/injection, schedule: Q01DX005 (ip), vehicle: Klucel (hydroxypropylcellulose) (HPC) 101 % of control and 113 % of control | dose: 3.12 mg/kg/injection, schedule: Q01DX005 (ip), vehicle: Klucel (hydroxypropylcellulose) (HPC) 111 % of control | dose: 6.25 mg/kg/injection, schedule: Q01DX005 (ip), vehicle: Klucel (hydroxypropylcellulose) (HPC) 116 % of control and 122 % of control | dose: 12.5 mg/kg/injection, schedule: Q01DX005 (ip), vehicle: Klucel (hydroxypropylcellulose) (HPC) 99 % of control and 102 % of control

COc1ccc(C2CC(=O)N(c3ncccc3C)C(=O)C2)cc1
inactive: dose: 100.0 mg/kg/injection, schedule: Q04DX003 (ip), vehicle: saline 93 % of control | dose: 200.0 mg/kg/injection, schedule: Q04DX003 (ip), vehicle: saline 100 % of control | dose: 400.0 mg/kg/injection, schedule: Q04DX003 (ip), vehicle: saline 102 % of control

CC(C)=CCCc1cc(-c2cc(CCC=C(C)C)nc(N)n2)nc(N)n1
inactive: dose: 60.0 mg/kg/injection, schedule: Q01DX005 (ip), vehicle: saline 99 % of control | dose: 120.0 mg/kg/injection, schedule: Q01DX005 (ip), vehicle: saline 103 % of control

N/N=C1/C(=O)N(c2cccc([N+](=O)[O-])c2)C(=O)C1C(=O)Nc1cccc([N+](=O)[O-])c1 (stereo not drawn)
inactive: dose: 37.5 mg/kg/injection, schedule: Q01DX005 (ip), vehicle: saline with Tween-80 101 % of control | dose: 75.0 mg/kg/injection, schedule: Q01DX005 (ip), vehicle: saline with Tween-80 100 % of control | dose: 150.0 mg/kg/injection, schedule: Q01DX005 (ip), vehicle: saline with Tween-80 105 % of control

NC(=S)N/N=C1/CC(=O)N(c2ccccc2)C1c1ccccc1 (stereo not drawn)
inactive: [1] 103 % of control | [10] 98 % of control | [11] 94 % of control

Cc1ccc(S(=O)(=O)C(C)(C)C(O)c2ccccc2)cc1 (stereo not drawn)
inactive: [12] 100 % of control | [13] 99 % of control | [14] 92 % of control

CCC1(c2ccccc2)NN1C1CCCCC1 (stereo not drawn)
inactive: dose: 6.25 mg/kg/injection, schedule: Q01DX005 (ip), vehicle: saline with Tween-80 100 % of control | dose: 12.5 mg/kg/injection, schedule: Q01DX005 (ip), vehicle: saline with Tween-80 96 % of control | dose: 25.0 mg/kg/injection, schedule: Q01DX005 (ip), vehicle: saline with Tween-80 92 % of control | [12] 96 % of control | [13] 100 % of control | [14] 105 % of control

CNCCOC(=O)/C=C1/CCC2C(C(O)CC3C(C)(C(=O)OC)CCCC23C)C1C (stereo not drawn)
inactive: dose: 1.5 mg/kg/injection, schedule: Q01DX009 (ip), vehicle: saline 110 % of control | dose: 3.0 mg/kg/injection, schedule: Q01DX009 (ip), vehicle: saline 102 % of control | dose: 6.0 mg/kg/injection, schedule: Q01DX009 (ip), vehicle: saline 106 % of control

CCOC(=O)c1cc(Cl)ccc1OS(N)(=O)=O
inactive: [2] 105 % of control | [3] 100 % of control | [4] 99 % of control

CCCC/C([O-])=C1/C(=O)N(c2ccccc2)N=C1C.CCCC/C([O-])=C1/C(=O)N(c2ccccc2)N=C1C.[Cu+2]
inactive: [1] 90 % of control | [10] 97 % of control | [11] 96 % of control

CCCCCCCCCCCC(C)[N+](C)(C)[O-] (stereo not drawn)
inactive: dose: 12.5 mg/kg/injection, schedule: Q01DX009 (ip), vehicle: saline 102 % of control | dose: 25.0 mg/kg/injection, schedule: Q01DX009 (ip), vehicle: saline 96 % of control | dose: 50.0 mg/kg/injection, schedule: Q01DX009 (ip), vehicle: saline 87 % of control and 91 % of control

COC(C)C(NC=O)C(=O)O (stereo not drawn)
inactive: [7] 100 % of control and 99 % of control | [8] 96 % of control and 98 % of control | [9] 100 % of control and 91 % of control

CC(=O)c1c(N)n(C)c(=O)n(C)c1=O
inactive: dose: 1.56 mg/kg/injection, schedule: Q01DX009 (ip), vehicle: saline with Tween-80 101 % of control | dose: 3.13 mg/kg/injection, schedule: Q01DX009 (ip), vehicle: saline with Tween-80 100 % of control | dose: 6.25 mg/kg/injection, schedule: Q01DX009 (ip), vehicle: saline with Tween-80 100 % of control and 95 % of control

ON=C(C(Cl)(Cl)Cl)C(Cl)(Cl)Cl
inactive: [1] 100 % of control | [10] 100 % of control | [11] 97 % of control

COC(=O)c1ccccc1NC(=O)CN1C(=O)c2ccccc2C1=O
inactive: dose: 100.0 mg/kg/injection, schedule: Q04DX003 (ip), vehicle: saline with Tween-80 96 % of control | dose: 200.0 mg/kg/injection, schedule: Q04DX003 (ip), vehicle: saline with Tween-80 102 % of control | dose: 400.0 mg/kg/injection, schedule: Q04DX003 (ip), vehicle: saline with Tween-80 88 % of control

COc1ccccc1C(O)(C(F)(F)F)C(F)(F)F
inactive: [15] 101 % of control | [16] 98 % of control | [17] 95 % of control

CN1CCC2(CC1)OCCO2
inactive: dose: 25.0 mg/kg/injection, schedule: Q01DX005 (ip), vehicle: Klucel (hydroxypropylcellulose) (HPC) 100 % of control | dose: 50.0 mg/kg/injection, schedule: Q01DX005 (ip), vehicle: Klucel (hydroxypropylcellulose) (HPC) 100 % of control | dose: 100.0 mg/kg/injection, schedule: Q01DX005 (ip), vehicle: Klucel (hydroxypropylcellulose) (HPC) 89 % of control | dose: 200.0 mg/kg/injection, schedule: Q01DX005 (ip), vehicle: Klucel (hydroxypropylcellulose) (HPC) 89 % of control

COc1ccc(N=Nc2c(O)n(-c3ccccc3Cl)c(=S)n(-c3ccc(C)cc3)c2=O)cc1
inactive: dose: 100.0 mg/kg/injection, schedule: Q01DX001 (ip), vehicle: Klucel (hydroxypropylcellulose) (HPC) 105 % of control | dose: 200.0 mg/kg/injection, schedule: Q01DX001 (ip), vehicle: Klucel (hydroxypropylcellulose) (HPC) 97 % of control | dose: 400.0 mg/kg/injection, schedule: Q01DX001 (ip), vehicle: Klucel (hydroxypropylcellulose) (HPC) 102 % of control

O=c1cc(-c2ccc(O)cc2)oc2cc(O)c(C3OC(CO)C(O)C(O)C3OC3OC(CO)C(O)C(O)C3O)c(O)c12 (stereo not drawn)
inactive: dose: 25.0 mg/kg/injection, schedule: Q01DX009 (ip), vehicle: Klucel (hydroxypropylcellulose) (HPC) 102 % of control | [15] 107 % of control | [16] 105 % of control | [17] 99 % of control
